{"source": "patent US20240269292A1", "key": {"RPE cells of rabbit eyes": {"system": "RPE cells of rabbit eyes", "experiment": "Rabbit ocular hydroquinone (HQ) model of dry AMD (DCFDA, vimentin, phalloidin on RPE flatmounts)", "format": "in vivo", "description": "FIG. 12 illustrates one example of a relevant animal model, specifically a rabbit-based protocol used to characterize the prodrugs of mitochondrial targeted tetrapeptides described herein. In this model, HQ (0.05 mL, 250 mM HQ) is injected into the vitreous cavity of rabbit eye on day 0 and day 1, and drug of interest (mitochondrial targeted peptide or prodrug thereof) or control (PBS) solution is injected into the same vitreous cavity of the rabbit eye at day 2. At day 4, the rabbit is euthanized, and eyes recovered for histologic analysis of retina and RPE flatmounts for various metrics, including cellular oxidation (DCFDA), as a surrogate of mitochondrial dysfunction, as well as for other cellular markers.\nThe rabbit hydroquinone (HQ) model of dry AMD (FIG. 12) was induced and flatmount of retinal pigment epithelium (RPE) were isolated.\nScores were determined by masked expert graders in at least 100 RPE cells from at least 3 eyes per condition.\nA rabbit model of mitochondrial dysfunction is also used to assay bioactivity of MTT and prodrugs derived thereof. […] On day 2, the MTT (e.g., EY005, 15 μM) were injected IVT. On day 3, a fluorogenic dye that measures hydroxyl, peroxyl and other reactive oxygen species (e.g., DCFDA) was injected IVT, and tissues were collected 12 hours later. RPE flatmounts were processed for multiple readouts: oxidation byproducts (DCFDA, FIG. 13) and measures of RPE-associated extracellular matrix (cytosolic vimentin expression, FIG. 14), and RPE cell dysmorphology (i.e., actin cytoskeleton (phalloidin), FIG. 14). All were analyzed and quantified by microscopy.\nFor example, in the rabbit ocular hydroquinone model, systemic administration of the maximally tolerated human dose of mitochondrial-targeted peptide (EY005) allometrically scaled for the rabbit, only partially restores RPE actin cytoskeletal integrity (FIG. 15D). In contrast, IVT injection of EY005 results in downregulation of RPE vimentin expression (FIG. 14) and restoration of normal RPE actin cytoskeleton integrity (FIG. 15C). […] IVT EY005 treatment produced an approximately 75% reduction of oxidation byproducts. […] In this setting, retinal and RPE tissue levels achieved by IVT administration in rabbits are substantially higher than tissue levels obtained by SQ administration of the maximally tolerated human dose allometrically scaled for rabbits."}, "[1]": {"system": "retinal pigment epithelium (RPE) cells", "experiment": "Dysregulated extracellular matrix (vimentin) in HQ-exposed RPE cells", "format": "cell-based", "details": "≥5 μM", "description": "(§1) Cells are then treated with drug (or control phosphate-buffered saline (PBS) solution) and assayed for effects on mitochondrial dysfunction and other cellular changes.\n(§2) Mitochondrial dysfunction can be modeled using in vitro cell culture systems relevant to retinal disease. In one such system, retinal pigment epithelium (RPE) cells are cultured to post-confluence to establish a differentiated cell monolayer and are then assayed for mitochondrial dysfunction and effect of drugs for treatment of mitochondrial dysfunction (FIG. 5). In this model, mitochondrial dysfunction is induced by two exposures to nonlethal doses of hydroquinone (HQ) at day −3 and day 0. Hydroquinone (HQ), a well-known environmental toxicant ubiquitously present in Western lifestyle, is a biochemical inducer of mitochondrial dysfunction. […] Cells are then treated with a drug of interest (mitochondrial targeted peptide drug or a prodrug thereof) or control (phosphate-buffered saline (PBS) solution and assayed for effects on mitochondrial dysfunction, as measured by microscopy of flavoprotein autofluorescence (a measure of mitochondrial electron transport chain complex II decompensation) (FIG. 6)."}, "[2]": {"experiment": "Accelerated in vitro release assay with complexation agents in methyl laurate", "format": "physicochemical", "details": "EY005 MTT formulated with various complexation agents, methyl laurate dispersal medium", "text": "In all cases, all EY005 was rapidly released, in some cases within hours, and in all cases by day 3."}, "[3]": {"system": "retinal pigment epithelium (RPE) cells", "format": "cell-based", "description": "as §1\nMitochondrial dysfunction is manifest as increased flavoprotein autofluorescence (upper panels) and as dysmorphology of the actin cytoskeleton (lower panels). […] EY005-stearyl was also preincubated with carboxyesterase (0.1 μg/mL) in separate media.\nMitochondrial dysfunction can be modeled using in vitro cell culture systems relevant to retinal disease. In one such system, retinal pigment epithelium (RPE) cells are cultured to post-confluence to establish a differentiated cell monolayer and are then assayed for mitochondrial dysfunction and effect of drugs for treatment of mitochondrial dysfunction (FIG. 5). In this model, mitochondrial dysfunction is induced by two exposures to nonlethal doses of hydroquinone (HQ) at day −3 and day 0. Hydroquinone (HQ), a well-known environmental toxicant ubiquitously present in Western lifestyle, is a biochemical inducer of mitochondrial dysfunction. When HQ is added to fully differentiated RPE cell cultures, HQ competes with mitochondrial ubiquinone, siphoning high-energy electrons from electron transport chain, which then reduces oxygen into superoxide, leading to cardiolipin peroxidation and mitochondrial dysfunction. Cells are then treated with a drug of interest (mitochondrial targeted peptide drug or a prodrug thereof) or control (phosphate-buffered saline (PBS) solution and assayed for effects on mitochondrial dysfunction, as measured by microscopy of flavoprotein autofluorescence (a measure of mitochondrial electron transport chain complex II decompensation) (FIG. 6)."}, "[4]": {"experiment": "In vivo kinetics after intravitreal Mito XR bolus in rabbit eyes, LC/MS"}, "[5]": {"system": "retinal pigment epithelium (RPE) cells", "experiment": "Actin cytoskeleton disorganization (phalloidin) in HQ-exposed RPE cells", "format": "cell-based", "details": "5 μM", "description": "as §1, §2"}, "[6]": {"experiment": "Theoretical in vivo release pharmacokinetics from XRDDS in vitreous cavity of rabbit eyes (FIGS. 31-32)", "details": "theoretical data", "text": "(§3) FIG. 31 illustrates theoretical in vivo release pharmacokinetic data comparing release kinetics of unmodified EY005 from the novel extended-release drug delivery system to that of two EY005 prodrugs, each of which is also formulated in the novel extended-release drug delivery system and injected into the vitreous cavity of rabbit eyes.\nas §3, with “32” for “31”"}, "[7]": {"experiment": "In vitro release kinetics of pilot formulation of Mito XR", "format": "physicochemical", "details": "same complexation agent and dispersal medium as Mito XR"}, "[8]": {"details": "rabbit", "text": "In some examples, cleavage and release of the free bioactive mitochondrial targeted tetrapeptide can be assessed following in vivo injection of the implant containing the prodrug within the extended release drug delivery system into the vitreous cavity or periocular tissues of a preclinical animal model (e.g., mouse, rat, rabbit, pig, etc.) (FIG. 29), wherein ocular tissue is recovered, and analytic methods such as HPLC or mass spectrometry can be used to calculate the amount of free bioactive mitochondrial targeted tetrapeptide and intact prodrug, at various timepoints after in vivo injection."}, "rabbit RPE": {"system": "rabbit RPE", "experiment": "Rabbit ocular hydroquinone (HQ) model of dry AMD", "format": "in vivo"}, "[9]": {"experiment": "Hydrophobicity and aqueous solubility", "format": "physicochemical"}, "[10]": {"system": "retinal pigment epithelium (RPE) cells", "experiment": "HQ-induced mitochondrial dysfunction in RPE cells (flavoprotein autofluorescence)", "format": "cell-based", "details": "HQ-exposed RPE cells, versus elamipretide or native EY005", "description": "as §1, §2"}, "mouse retinal tissues": {"system": "mouse retinal tissues", "experiment": "Mouse experimental retinal vein occlusion (RVO) model", "format": "in vivo", "text": "Control, untreated mice show undetectable FP-AF and superoxide.\nControl, untreated mice show normal synaptic markers.\nFIGS. 11H-111 show visual function as quantified by electroretinogram (ERG) in mice treated with control, RVO and RVO with EY005 pretreatment or EY005 post-treatment. B-wave amplitudes were quantified from at least 5 eyes for each condition."}, "[11]": {"details": "rabbit, single IVT dose of 15 μg, 36 hrs. after drug treatment"}, "[12]": {"details": "cultured RPE cells, dose-response"}, "[13]": {"details": "cultured RPE cells, high dose (≥5 μM)"}}, "note": "Entries after “also recorded” stand apart in the source; their conditions may differ. Non-standard residues stand in square brackets, D forms with d. Residues, ends and D or L forms follow the SMILES beside them. Dmt = Cc1cc(O)cc(C)c1C[C@H](N)C(=O)O"}
{"smiles": "Cc1cc(O)cc(C)c1C[C@H](NC(=O)[C@H](N)CCCNC(=N)N)C(=O)N[C@@H](CCCCN)C(=O)N[C@@H](Cc1ccccc1)C(=O)O", "note": "[EY005, H-d-Arg-DMT-Lys-Phe] (H-[dR][Dmt]KF-OH)", "values": [{"measurement": "reversal of mitochondrial dysfunction (oxidant species) in RPE of rabbit eyes", "setting": "RPE cells of rabbit eyes; rabbit HQ model, 15 μM IVT, within 36 hours of treatment", "result": "reduced oxidant species; also recorded: potent for reversal of mitochondrial dysfunction"}, {"measurement": "reversal of RPE cytoskeletal dysmorphology, intravitreal", "setting": "RPE cells of rabbit eyes; rabbit HQ model, intravitreal 15 μM", "result": "near complete reversal of RPE cytoskeletal dysmorphology"}, {"measurement": "reversal of RPE cytoskeletal dysmorphology, subcutaneous", "setting": "RPE cells of rabbit eyes; rabbit HQ model, subcutaneous 0.9 mg/kg once daily", "result": "only partial reversal of RPE cytoskeletal dysmorphology"}, {"measurement": "retinal toxicity", "setting": "RPE cells of rabbit eyes; rabbit, single IVT dose of 15 μg", "result": "no retinal toxicity was observed"}, {"measurement": "reduction of cytoskeleton disorganization (phalloidin)", "setting": "RPE cells of rabbit eyes; [11]", "result": "approximately 80%"}, {"measurement": "reduction of oxidation byproducts (DCFDA)", "setting": "RPE cells of rabbit eyes; [11]", "result": "approximately 75%"}, {"measurement": "reversal of vimentin stain", "setting": "RPE cells of rabbit eyes; [11]", "result": "approximately 90%"}, {"measurement": "Reversal of dysregulated extracellular matrix (vimentin)", "setting": "[1]", "result": "reverses dysregulation of RPE extracellular matrix"}, {"measurement": "time by which all EY005 was released", "setting": "[2]", "result": "≤ 3", "unit": "days"}, {"measurement": "reversal of HQ-induced mitochondrial dysfunction (flavoprotein autofluorescence)", "setting": "[3]; HQ-exposed cultured RPE cells", "result": "reversal of induced mitochondrial dysfunction; also recorded: near complete reversal of mitochondrial dysfunction"}, {"measurement": "efficacy and potency for reduction of flavoprotein autofluorescence compared to elamipretide", "setting": "[3]; HQ-exposed cultured RPE cells, dose-response", "result": "equivalent efficacy and potency; also recorded: comparable or equivalent dose-response and potency to elamipretide"}, {"measurement": "efficacy and potency for reversal of actin cytoskeleton disorganization compared to elamipretide", "setting": "[3]; [12]", "result": "equivalent efficacy and potency"}, {"measurement": "efficacy and potency for reversal of dysregulated extracellular matrix (vimentin) compared to elamipretide", "setting": "[3]; [12]", "result": "equivalent efficacy and potency"}, {"measurement": "reversal of actin cytoskeleton disorganization (phalloidin staining)", "setting": "[3]; [13]", "result": "reversal of actin cytoskeleton disorganization"}, {"measurement": "reversal of dysregulated extracellular matrix (vimentin expression)", "setting": "[3]; [13]", "result": "reversal of dysregulated extracellular matrix"}, {"measurement": "Residual drug in recovered bolus", "setting": "[4]; bolus formulation of EY005 native peptide", "result": "no residual drug"}, {"measurement": "Retinal tissue concentrations", "setting": "[4]; through 7-week timepoint (Mito XR), week 3.5 (EY005 native peptide bolus)", "result": "nearly undetectable"}, {"measurement": "Reversal of actin cytoskeleton disorganization", "setting": "[5]", "result": "restores normal RPE cell morphology"}, {"measurement": "time to nearly complete release of unmodified EY005 from XRDDS", "setting": "[6]", "result": "approximately 30 days"}, {"measurement": "release of native peptide formulated identically to Mito XR", "setting": "[7]", "result": "extremely rapid release; also recorded: excessive release"}, {"measurement": "residual drug in recovered bolus, native peptide formulation", "setting": "[8]; IVT bolus formulation of EY005 native peptide", "result": "contained no EY005 native peptide; also recorded: no residual drug in the recovered bolus"}, {"measurement": "time by which tissue concentrations were nearly undetectable", "setting": "[8]; IVT identical bolus formulation containing EY005 native peptide", "result": "≤ 3.5", "unit": "week"}, {"measurement": "time beyond which EY005 tissue levels were not detectable", "setting": "[8]; IVT multiphasic colloidal suspension bolus of EY005 native peptide", "result": "≤ 21", "unit": "days"}, {"measurement": "Reversal of RPE cytoskeletal dysmorphology", "setting": "rabbit RPE; 0.9 mg/kg subcutaneous once daily", "result": "only partially effective"}, {"measurement": "Efficacy of intravitreal versus subcutaneous administration", "setting": "rabbit RPE; intravitreal injection", "result": "significantly more effective"}, {"measurement": "Hydrophobicity", "setting": "[9]", "result": "highly hydrophilic"}, {"measurement": "Aqueous solubility", "setting": "[9]; native form", "result": "high aqueous solubility"}, {"measurement": "Potency for reversal of mitochondrial dysfunction relative to comparator", "setting": "[10]", "result": "equipotent to elamipretide"}, {"measurement": "markers of mitochondrial dysfunction (flavoprotein autofluorescence and superoxide) following RVO", "setting": "mouse retinal tissues; mouse, 3 mg/kg BID subcutaneous", "result": "significantly attenuates both markers of mitochondrial dysfunction"}, {"measurement": "synaptic markers (SV2, ZNP-1) in inner and outer plexiform layers following RVO", "setting": "mouse retinal tissues; mouse, 3 mg/kg BID subcutaneous, pretreatment or posttreatment", "result": "significantly prevents (pretreatment) and reverses (posttreatment) loss of synaptic markers"}, {"measurement": "ERG B-wave amplitude following RVO", "setting": "mouse retinal tissues; mouse, pretreatment or post-treatment", "result": "significantly prevented or reversed loss of B-wave amplitude"}, {"measurement": "efficacy in treatment of mouse model of RVO", "setting": "mouse retinal tissues; systemic dose greater than the maximally tolerated dose in humans (allometrically scaled)", "result": "partially effective"}]}
